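Test compounds were applied to cells in 96-well plates for 48 hours at 5 doses. GI50: concentration for 50% inhibition of growth. Definition used: TGI = concentration required for complete inhibition of growth.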
Assays:
Test in all cases: growth of human tumour cells (NCI), 48 h; in the data active = GI50 below about 0.43 µM; inactive = the rest
MALME-3M melanoma = system: MALME-3M melanoma
KM12 colon = system: KM12 colon
SF-268 CNS = system: SF-268 CNS
RPMI-8226 leukemia = system: RPMI-8226 leukemia
ACHN renal = system: ACHN renal
HS 578T breast = system: HS 578T breast
MCF7 breast = system: MCF7 breast
HOP-62 NSCLC = system: HOP-62 NSCLC
SR leukemia = system: SR leukemia
HT29 colon = system: HT29 colon
OVCAR-4 ovarian = system: OVCAR-4 ovarian
NCI-H522 lung = system: NCI-H522 lung
NCI-H23 lung = system: NCI-H23 lung
SF-539 CNS = system: SF-539 CNS
SNB-19 CNS = system: SNB-19 CNS
M14 melanoma = system: M14 melanoma
MOLT-4 leukemia = system: MOLT-4 leukemia
HOP-92 NSCLC = system: HOP-92 NSCLC
HCT-15 colon = system: HCT-15 colon
UACC-257 melanoma = system: UACC-257 melanoma
SK-OV-3 ovarian = system: SK-OV-3 ovarian
SK-MEL-2 melanoma = system: SK-MEL-2 melanoma
PC-3 prostate = system: PC-3 prostate
IGROV1 ovarian = system: IGROV1 ovarian
A498 renal = system: A498 renal
HL-60(TB) leukemia = system: HL-60(TB) leukemia
A549 NSCLC = system: A549 NSCLC
HCC-2998 colon = system: HCC-2998 colon
OVCAR-5 ovarian = system: OVCAR-5 ovarian
MDA-MB-435 = system: MDA-MB-435
OVCAR-8 ovarian = system: OVCAR-8 ovarian
OVCAR-3 ovarian = system: OVCAR-3 ovarian
U251 CNS = system: U251 CNS
K-562 leukemia = system: K-562 leukemia
SNB-75 CNS = system: SNB-75 CNS
TK-10 renal = system: TK-10 renal
EKVX NSCLC = system: EKVX NSCLC
SW-620 colon = system: SW-620 colon
UO-31 renal = system: UO-31 renal
NCI-H460 lung = system: NCI-H460 lung
SF-295 CNS = system: SF-295 CNS
UACC-62 melanoma = system: UACC-62 melanoma
SK-MEL-28 melanoma = system: SK-MEL-28 melanoma
RXF 393 renal = system: RXF 393 renal
CAKI-1 renal = system: CAKI-1 renal
LOX IMVI melanoma = system: LOX IMVI melanoma
HCT-116 colon = system: HCT-116 colon
SN12C renal = system: SN12C renal
NCI/ADR-RES ovarian = system: NCI/ADR-RES ovarian
T-47D breast = system: T-47D breast
CCRF-CEM leukemia = system: CCRF-CEM leukemia
COLO 205 colon = system: COLO 205 colon
786-0 renal = system: 786-0 renal
NCI-H226 lung = system: NCI-H226 lung
DU-145 prostate = system: DU-145 prostate
BT-549 breast = system: BT-549 breast
MDA-MB-231 breast = system: MDA-MB-231 breast
SK-MEL-5 melanoma = system: SK-MEL-5 melanoma

O=C(NC(COC(=O)C(Cc1ccccc1)NC(=O)c1ccccc1)Cc1ccccc1)c1ccccc1 (stereo unspecified)
> 50 µM: TGI (MALME-3M melanoma) | TGI (KM12 colon) | TGI (SF-268 CNS) | TGI (RPMI-8226 leukemia) | TGI (ACHN renal) | TGI (HS 578T breast) | TGI (MCF7 breast) | TGI (HOP-62 NSCLC) | TGI (SR leukemia) | TGI (HT29 colon) | TGI (OVCAR-4 ovarian) | TGI (NCI-H522 lung) | TGI (NCI-H23 lung) | TGI (SF-539 CNS) | TGI (SNB-19 CNS) | TGI (M14 melanoma) | TGI (MOLT-4 leukemia) | TGI (HOP-92 NSCLC) | TGI (HCT-15 colon) | TGI (UACC-257 melanoma) | TGI (SK-OV-3 ovarian) | TGI (SK-MEL-2 melanoma) | TGI (PC-3 prostate) | TGI (IGROV1 ovarian) | TGI (A498 renal) | TGI (HL-60(TB) leukemia) | TGI (A549 NSCLC) | TGI (HCC-2998 colon) | TGI (OVCAR-5 ovarian) | TGI (MDA-MB-435) | TGI (OVCAR-8 ovarian) | TGI (OVCAR-3 ovarian) | TGI (U251 CNS) | TGI (K-562 leukemia) | TGI (SNB-75 CNS) | TGI (TK-10 renal) | TGI (EKVX NSCLC) | TGI (SW-620 colon) | TGI (UO-31 renal) | TGI (NCI-H460 lung) | TGI (SF-295 CNS) | TGI (UACC-62 melanoma) | TGI (SK-MEL-28 melanoma)

O=C1c2ccccc2-c2c1c1ccccc1c(=O)n2CCN1CCNCC1
3.66 µM: TGI (U251 CNS)
7.28 µM: TGI (SW-620 colon)
23.2 µM: TGI (SNB-75 CNS)
13 µM: TGI (UO-31 renal)
3.6 µM: TGI (A549 NSCLC)
11.4 µM: TGI (NCI/ADR-RES ovarian)
6.92 µM: TGI (OVCAR-5 ovarian)
3.97 µM: TGI (HCT-116 colon)
1.3 µM: TGI (ACHN renal)
12.4 µM: TGI (786-0 renal)
10.7 µM: TGI (MDA-MB-231 breast)
33 µM: TGI (OVCAR-4 ovarian)
active: GI50 (ACHN renal) 0.316 µM | GI50 (MOLT-4 leukemia) 0.253 µM
36.2 µM: TGI (SK-MEL-2 melanoma)
19.3 µM: TGI (NCI-H522 lung)
6.26 µM: TGI (SK-OV-3 ovarian)
5.05 µM: TGI (K-562 leukemia)
3.59 µM: TGI (OVCAR-8 ovarian)
4.26 µM: TGI (CCRF-CEM leukemia)
16.9 µM: TGI (UACC-257 melanoma)
27.6 µM: TGI (SK-MEL-28 melanoma)
8.02 µM: TGI (HT29 colon)
5.01 µM: TGI (HCC-2998 colon)
6.93 µM: TGI (OVCAR-3 ovarian)
inactive: GI50 (RXF 393 renal) 4.31 µM | GI50 (MALME-3M melanoma) 2.53 µM | GI50 (KM12 colon) 1.24 µM | GI50 (SF-268 CNS) 5.83 µM | GI50 (CAKI-1 renal) 0.465 µM | GI50 (RPMI-8226 leukemia) 1.63 µM | GI50 (LOX IMVI melanoma) 0.735 µM | GI50 (HCT-116 colon) 0.573 µM | GI50 (HS 578T breast) 3.74 µM | GI50 (SN12C renal) 2.21 µM | GI50 (MCF7 breast) 0.836 µM | GI50 (HOP-62 NSCLC) 1.92 µM | GI50 (NCI/ADR-RES ovarian) 2.55 µM | GI50 (HT29 colon) 1.58 µM | GI50 (OVCAR-4 ovarian) 10.4 µM | GI50 (NCI-H522 lung) 3.06 µM | GI50 (T-47D breast) 2.4 µM | GI50 (CCRF-CEM leukemia) 0.671 µM | GI50 (SNB-19 CNS) 1.32 µM | GI50 (HOP-92 NSCLC) 4.44 µM | GI50 (HCT-15 colon) 0.935 µM | GI50 (UACC-257 melanoma) 4.98 µM | GI50 (SK-OV-3 ovarian) 1.73 µM | GI50 (COLO 205 colon) 5.4 µM | GI50 (SK-MEL-2 melanoma) 12.7 µM | GI50 (786-0 renal) 2.88 µM | GI50 (PC-3 prostate) 4.02 µM | GI50 (IGROV1 ovarian) 3.61 µM | GI50 (NCI-H226 lung) 1.06 µM | GI50 (A549 NSCLC) 0.576 µM | GI50 (HCC-2998 colon) 0.785 µM | GI50 (OVCAR-5 ovarian) 1.55 µM | GI50 (MDA-MB-435) 1.97 µM | GI50 (OVCAR-8 ovarian) 0.968 µM | GI50 (OVCAR-3 ovarian) 1.12 µM | GI50 (U251 CNS) 1.08 µM | GI50 (DU-145 prostate) 3.11 µM | GI50 (K-562 leukemia) 0.902 µM | GI50 (SNB-75 CNS) 6.26 µM | GI50 (TK-10 renal) 2.21 µM | GI50 (EKVX NSCLC) 7.24 µM | GI50 (SW-620 colon) 1.47 µM | GI50 (UO-31 renal) 2.24 µM | GI50 (NCI-H460 lung) 0.668 µM | GI50 (SF-295 CNS) 0.552 µM | GI50 (UACC-62 melanoma) 1.37 µM | GI50 (BT-549 breast) 4.96 µM | GI50 (SK-MEL-28 melanoma) 5.82 µM | GI50 (MDA-MB-231 breast) 2.45 µM
6.79 µM: TGI (MALME-3M melanoma)
26.5 µM: TGI (HS 578T breast)
17.8 µM: TGI (PC-3 prostate) | TGI (BT-549 breast)
3.05 µM: TGI (SF-295 CNS)
16.2 µM: TGI (T-47D breast)
> 100 µM: TGI (IGROV1 ovarian) | TGI (NCI-H460 lung)
17.5 µM: TGI (MCF7 breast)
17.4 µM: TGI (HOP-92 NSCLC)
18.2 µM: TGI (COLO 205 colon)
4.43 µM: TGI (RPMI-8226 leukemia)
6.27 µM: TGI (HOP-62 NSCLC)
19.6 µM: TGI (RXF 393 renal)
4.9 µM: TGI (SNB-19 CNS)
11.3 µM: TGI (HCT-15 colon) | TGI (TK-10 renal)
8.79 µM: TGI (DU-145 prostate)
3.15 µM: TGI (NCI-H226 lung) | TGI (UACC-62 melanoma)
2.9 µM: TGI (CAKI-1 renal)
4.2 µM: TGI (MDA-MB-435)
18.1 µM: TGI (SN12C renal)
2.99 µM: TGI (LOX IMVI melanoma)
0.688 µM: TGI (MOLT-4 leukemia)
26.4 µM: TGI (SF-268 CNS) | TGI (EKVX NSCLC)
3.47 µM: TGI (KM12 colon)

CC(=O)O/N=C/c1c2ccccc2cc2ccccc12
86.2 µM: TGI (RXF 393 renal)
68.5 µM: TGI (ACHN renal)
69.6 µM: TGI (SK-OV-3 ovarian)
> 100 µM: TGI (MALME-3M melanoma) | TGI (KM12 colon) | TGI (SF-268 CNS) | TGI (CAKI-1 renal) | TGI (RPMI-8226 leukemia) | TGI (LOX IMVI melanoma) | TGI (HCT-116 colon) | TGI (HS 578T breast) | TGI (SN12C renal) | TGI (MCF7 breast) | TGI (HOP-62 NSCLC) | TGI (NCI/ADR-RES ovarian) | TGI (SR leukemia) | TGI (HT29 colon) | TGI (T-47D breast) | TGI (NCI-H23 lung) | TGI (CCRF-CEM leukemia) | TGI (SF-539 CNS) | TGI (SNB-19 CNS) | TGI (M14 melanoma) | TGI (SK-MEL-5 melanoma) | TGI (MOLT-4 leukemia) | TGI (HOP-92 NSCLC) | TGI (HCT-15 colon) | TGI (UACC-257 melanoma) | TGI (COLO 205 colon) | TGI (PC-3 prostate) | TGI (A498 renal) | TGI (HL-60(TB) leukemia) | TGI (NCI-H226 lung) | TGI (A549 NSCLC) | TGI (OVCAR-5 ovarian) | TGI (MDA-MB-435) | TGI (OVCAR-3 ovarian) | TGI (U251 CNS) | TGI (DU-145 prostate) | TGI (K-562 leukemia) | TGI (TK-10 renal) | TGI (EKVX NSCLC) | TGI (SW-620 colon) | TGI (UO-31 renal) | TGI (NCI-H460 lung) | TGI (SF-295 CNS) | TGI (UACC-62 melanoma) | TGI (SK-MEL-28 melanoma) | TGI (MDA-MB-231 breast)
50.3 µM: TGI (OVCAR-8 ovarian)
51.5 µM: TGI (SNB-75 CNS)
